Results as given in patent publication US10543156B2, “Shaping keratin fibres using 2-oxazolidinone compounds” (The Procter & Gamble Company, priority 2015, dated 2020).

Assay: Hair straightening efficacy on hair switches, expert grading
Settings: after 5 wash cycles; for Straightening efficacy Mean grade: 20% active agent in crosslinking composition with 100 ppm 4,5-dibromofluorescein, 100 ppm Eosin Y, water buffered at pH 10, irons at 121° C. with UV light at 380 nm, 8 passes, score on 0-10 scale (0 curly, 10 very straight)
Protocol: The hair straightening efficacy is tested for the crosslinking compositions described herein. Switches of low lift naturally curly hair are employed. These are shampooed with a Pantene clarifying shampoo to ensure the hair is in a clean state with no residues that could affect the end result. The switches are then rinsed. Excess water is removed from the hair by wringing out the switches. The switches are treated with a crosslinking composition which is pre-prepared in a dark room. The crosslinking composition comprises: active agent as listed in TABLE 2; 100 ppm 4,5-dibromofluorescein; 100 ppm Eosin Y; QSP water buffered at pH 10. These ingredients are mixed on a spinner plate for 30 mins. The crosslinking composition is stored in an amber bottle or a bottle covered in electrical tape to ensure no light access to the crosslinking composition. 0.5 g of crosslinking composition per 1 g hair is employed. The crosslinking composition is left on the hair for 30 minutes. After this time, the hair is blow dried, brushed, and is then mechanically straightened with hybrid light and heat emitting straightening irons (at 250° F. [121° C.] and emitting UV light at 380 nm) with 8 passes.
The switches are then imaged. To simulate durability, the switches are then given one wash-and-dry cycle. One wash-and-dry cycle involves shampooing with a Hairtrition shampoo (Hairtrition Color Protect sulfate-free shampoo from Zotos), rinsing and then drying in a hot box. Once dry the switches are imaged again. The switches are then given 4 further wash-and-dry cycles. Once dry the switches are imaged again. An expert grader gives the images of the switches a score on a 0-10 scale. The scale is a standard scale set as curly hair having 4-5 nodes of curls is a score of 0 and very straight hair is a 10. Thus, the switches are compared to a normal state of hair.
Using an expert grader is reliable because the grader is trained on measuring/scaling the configuration of the hair from straight to curly in a consistent way. Numeric data obtained by this method is averaged, and statistical analysis is conducted using JMP statistical software available from SAS Institute at the 87% confidence level.

Row | SMILES | Straightening efficacy Mean grade | Straightening efficacy compared with the control (in words) (statistical analysis at the 87% confidence level)
1 | O=C1OCCN1CCO [N-(hydroxyethyl)-2-oxazolidinone] | 4.3 | significantly better straightening efficacy than the control
2 | CC(=O)N1CCOC1=O [N-acetyl-2-oxazolidinone] | 3.0 | 
3 | O=C1NCCO1 [2-oxazolidinone] | 3.7 | 
